pIC50: −log10 of the molar value. Like-named read-outs stand apart in the source and are kept apart here.
Legend:
[1] = tested on: P388 murine leukemia cells; test: In vitro cytotoxicity, one-hour exposure, clonogenic survival of P388 cells; format: cell-based; conditions: Mus musculus, read-out: in vitro cytotoxicity IC50, 1 hr exp.
Experimental: In vitro cytotoxicity was assayed by determining cell survival following exposure of P388 murine leukemia cells to a range of test compound concentrations. Cytotoxicity was quantitated following either a one-hour exposure or continuous exposure of P388 cells to test compound.
A Manual of Basic Technique. […] Briefly, following drug exposure cells were plated in soft agar and incubated (37°, 5% CO2) for 7-10 days during which time viable cells form visible colonies. Cytotoxicity following continuous exposure of cells to test compound was assayed by quantitating total P388 cells on a Coultier Counter following a 48-hour co-incubation of test compound with cells. P388 cells were maintained in log phase throughout the duration of cytotoxicity assays.
The percentage of cells surviving relative to an untreated control was graphed as a function of increasing drug concentration.

[2] = In vivo antitumor assay, Colo38(sc); parameters: species or system mice; conditions: mouse, in vivo
Text: (§1) Mice: Inbred: C3H/He and NCR-nu; and Hybrids: B6D2F1 (C57BL/6 females×DBA/2 males, CD2F1 (Balb/c females×DBS/2 males) and B6C3fl (C57BL/6×C3H) were bred at Wayne State University from strains obtained from the Frederick Cancer Research Facility, Frederick, Maryland or purchased from commercial suppliers.
(§2) Tumors: Murine Tumor: P388 and an adriamycin-resistant (ADR) subline P388/ADR leukemia and the following transplantable solid tumors of mice were used for in vivo testing: B16 melanoma (B16), pancreatic ductal adenocarcinoma No. 03 (Pane 03), colon adenocarcinoma No. 38 (colo 38), lung carcinoma No. 12 (LC 12), mammary ductal adenocarcinoma No. 16/C (Mam16C) and an adriamycin-resistant subline Mam16C/ADR. Human tumor: A single human tumor, mammary carcinoma MX-1 was used for in vivo testing. All tumors are in the Developmental Therapeutics Program frozen tumor respository, maintained by the Biological Testing Branch, Frederick Maryland. Each has a detailed description, code identification number, and list of references at the National Tumor Repository. Murine tumors were maintained in the mouse strain of origin and were transplanted in the appropriate F1 hydrid (or the strain of origin) for therapy trials. Human mammary carcinoma MX-1 (MX1) was maintained as a subcutaneous implant in either athymic Swiss (Cr: NIH(S)-nu) or athymic random bred (NCR-nu) mice and transplanted in NCR-nu for therapy trials.
(§3) Chemotherapy: For pancreatic ductal adenocarcinoma No. 3, colon adenocarcinoma No. 38 (colo 38), lung carcinoma No. 12 LC 12) and both adriamycin-sensitive (RP) and-resistant (ADR) mammary ductal adenocarcinoma No. 16 (Mam16) tumors, bilateral tumor implants were used to help ensure a more uniform tumor burden per mouse (thus reducing the requirement for greater numbers of mice per group). The animals necessary to begin an experiment were pooled, implanted bilaterally s.c. on day zero with 30-60 mg tumor fragments using a 12-gauge trocar, and again pooled before randomization to the various treatment and control groups. Chemotherapy was started within three days after tumor implantation while the number of cells per mouse was relatively small (1×10^7 -1×10^8 cells).
(§4) Quantitative end points used to assess antitumor activity included % Increased Life Span (% ILS), Tumor Cell Kill (Log10 kill), and Tumor Growth Inhibition (T/C). Long Term Survivors (45 or 60 day) were excluded from calculations of %ILS and Tumor Cell Kill.
(§5) Tumors were measured with a caliper once or twice weekly (as needed) until either tumors exceeded 1600 mg or cure was assured. Tumor weights were estimated from two-dimensional measurements: Tumor Weight (mg)=(a×b^2) / 2, where a and b are the tumor length and width (ram) respectively. Measurements were carried out simultaneously in both treatment and control groups. When the control group tumors reached approximately 750-1500 mg in size (median of group), the median tumor weight of each group was determined (including zeros). The T/C value in percent is an indication of antitumor effectiveness. The % T/C was calculated from the following formula for solid murine tumor models: [formula] where T and C are median tumor weights of the treatment and control groups, respectively. […] A T/C value <10% is indicative of a high degree of antitumor activity and is the level used by National Cancer Institute to justify further development if other requirements are met (termed DN-2 level activity). By convention the T/C value for the mammary carcinoma MX-1 models is calculated by the parameter of change in tumor weight .

[3] = tested on: colon adenocarcinoma No. 38 (colo 38); test: In vivo antitumor assay, Colo38(sc); parameters: species or system mice
Text: as §1, §2, §3, §4, §5

[4] = In vivo antitumor assay, MXI(src); parameters: species or system mice; conditions: mouse, in vivo, drug ip
Text: as §1, §2
(§6) For P388 and P388/ADR leukemia studies the tumor cells were implanted either interperitoneally (IP) or intravenously (IV) on day zero and treatment was started on day one. For B16 melanoma (B16) studies, the tumor cells were implanted IP on day zero and treatment was started on day one. Titered controls were also included to facilitate the calculation of tumor cell kill. For mammary carcinoma MX-1 studies, tumors were implanted with 1) subcutaneously (sc) (14-mg fragment of sc donor tumor) in the axillary region or 2) under the subrenal capsule (SRC) (10×10×10 ocular micrometer unit fragment of sc donor tumor).
as §4
as §5, with “weight . The % T/C was calculated from the following formula for MX-1 models [formula] where ΔT and ΔC are the change in mean tumor weight of the test and control groups, respectively, and T (initial) is the initial mean tumor weight of the test group. […] A reproducible % T/C ≤10 is considered significant activity.” for “weight .”

mammary carcinoma MX-1 = test: In vivo antitumor assay, MXI(src); parameters: species or system mice; conditions: drug ip, qd 1,5,9, exp SD-18, change in tumor weight
Text: as §1, §2, §6, §4
as §5, with “weight . The % T/C was calculated from the following formula for MX-1 models [formula] where ΔT and ΔC are the change in mean tumor weight of the test and control groups, respectively, and T (initial) is the initial mean tumor weight of the test group. […] A reproducible % T/C ≤10 is considered significant activity.” for “weight .”

[5] = drug iv, sc, iv, qd 3-16, exp 1038
[6] = drug iv, qd 3-4, bid 5,6,12-17, exp 1036
[7] = drug iv,sc: iv, qd 3-9, sc, qd 11-19, exp 1163

SMILES: Cc1cc(-c2c(F)cc3c4nn(CCN(C)C)c(=O)c-4cn(C4CC4)c3c2F)cc(C)n1.O=C(O)/C=C/C(=O)O [Example 1, 5-Cyclopropyl-6,8-difluoro-2,5-dihydro-2-[2-(dimethylamino)-ethyl]-7-(2,6-dimethyl-4-pyridinyl)-3H-pyrazolo[4,3-c]quinolin-3-one (E)-2-butendioate (1:1)]
- pIC50 ([1]; P388, 1 h): 6.59
- MTD ([2]; drug iv, qd 3,7,11, exp 1038): 78 mg/kg
- MTD [2, 5]: 58 mg/kg
- Log Kill ([3]; drug iv, qd 3,7,11, exp 1038): 0.60
- T/C % ([3]; drug iv, qd 3,7,11, exp 1038): 14%
- Log Kill [3, 5]: 1.2
- T/C % [3, 5]: 0%
- MTD ([4]; qd 1,5,9, exp SD-18): 52 mg/kg
- T/C % (mammary carcinoma MX-1): 6%

SMILES: Cc1cc(-c2c(F)cc3c4nn(CCCN(C)C)c(=O)c-4cn(C4CC4)c3c2F)cc(C)n1 [Example 14]
- pIC50 ([1]; P388, 1 hr exposure): 6.80
- MTD ([2]; drug iv, qd 3,12-14, exp 905): 133 mg/kg
- Log Kill ([3]; drug iv, qd 3,12-14, exp 905): 0.54
- T/C % ([3]; drug iv, qd 3,12-14, exp 905): 38%

SMILES: Cc1cc(-c2c(F)cc3c4nn(CCNCCO)c(=O)c-4cn(C4CC4)c3c2F)cc(C)n1 [Example 17]
- pIC50 ([1]; P388, 1 hr exposure): 5.89

SMILES: Cc1cc(-c2c(F)cc3c4nn([C@H]5CC[C@@H](N(C)C)CC5)c(=O)c-4cn(C4CC4)c3c2F)cc(C)n1 [Example 51a]
- pIC50 ([1]; P388, 1 hr exposure): 7.17
- MTD [2, 6]: 63 mg/kg
- T/C % [3, 6]: 39%
- MTD ([4]; qd 1,5,9, exp SD-18, MTD not achieved, maximum dose tested): > 23 mg/kg
- T/C % (mammary carcinoma MX-1): 5%

SMILES: Cc1cc(-c2c(F)cc3c4nn([C@H]5CC[C@H](N(C)C)CC5)c(=O)c-4cn(C4CC4)c3c2F)cc(C)n1 [Example 51b]
- pIC50 ([1]; P388, 1 hr exposure): 6.59
- MTD ([2]; drug iv, qd 3-4,15,17, bid 5.7, exp 1036, MTD not achieved, maximum dose tested): > 220 mg/kg
- T/C % ([3]; drug iv, qd 3-4,15,17, bid 5.7, exp 1036): 13%
- MTD ([4]; qd 1,5,9, exp SD-18): 99 mg/kg
- T/C % (mammary carcinoma MX-1): 2%

SMILES: Cc1cc(-c2c(F)cc3c4nn([C@H]5CC[C@@H](N)CC5)c(=O)c-4cn(C4CC4)c3c2F)cc(C)n1 [Example 56a, 2-(Cis-4-Aminocyclohexyl)-5-cyclopropyl-6,8-difluoro-2,5-dihydro-7-(2,6-dimethyl-4-pyridinyl)-3H-pyrazolo-[4,3-c]quinolin-3-one]
- pIC50 ([1]; P388, 1 hr exposure): 6.36
- MTD [2, 7]: 137 mg/kg
- T/C % [3, 7]: 40%
